Among the data in US8759343B2 (priority 2007, dated 2014) are melting point values, retold here.

Counter-ions that a name gives are not always drawn.

A word on the melting point: it is the temperature, or range, at which the solid turns liquid. `FC(F)(F)c1cccc(-c2ccc(C34CCN(CC3)C4)cn2)c1` (as salt: HCl) yielded a melting point of 191 to 192 °C.
Under `Fc1ncccc1-c1ccc(C23CCCN(CCC2)C3)cn1` stands 98 to 99 °C.
The molecule `COc1ccc(-c2ccc(C34CCN(CC3)C4)cn2)cc1` displayed a melting point of 160 to 162 °C.
Under `Fc1ncccc1-c1ccc(C23CCN(CC2)C3)cn1` stands 116 to 117 °C.
For `c1ccc2c(c1)nnn2-c1ccc(C23CCCN(CCC2)C3)cn1` (as salt: HCl) the value was 258 to 260 °C; for `c1ccc2c(-c3ccc(C45CCCN(CCC4)C5)cn3)cccc2c1`, 167 to 169 °C.
`c1nc(N2CCOCC2)ncc1-c1ccc(C23CCCN(CCC2)C3)cn1`: the melting point is 189 to 191 °C.
For `c1ccc2oc(-c3ccc(C45CCCN(CCC4)C5)cn3)cc2c1` the value was 152 to 154 °C; for `FC(F)(F)c1cc(-c2ccc(C34CCCN(CCC3)C4)cn2)cc(C(F)(F)F)c1` (as salt: HBr), 226 to 228 °C.
Under `COc1cccc(-c2ccc(C34CCCN(CCC3)C4)cn2)c1` (as salt: HCl) stands 267 to 269 °C; under `Fc1ccc(-c2ccc(C34CCN(CC3)C4)cn2)cc1F`, 85 to 87 °C; under `c1csc(-c2ccc(C34CCCN(CCC3)C4)cn2)n1`, 124 to 126 °C.
Under `c1csc(-c2ccc(C34CCN(CC3)C4)cn2)n1` stands 127 to 129 °C.
On to `FC(F)(F)Oc1ccc(-c2ccc(C34CCN(CC3)C4)cn2)cc1`, for which the melting point was 75 to 76 °C.
For the molecule `COc1ccncc1-c1ccc(C23CCCN(CCC2)C3)cn1`, the melting point lay within 134 to 136 °C.
For `c1cc(-c2ccc(C34CCN(CC3)C4)cn2)ccn1` the value was 254 to 256 °C.
Under `CC(C)(C)OC(=O)N1CCN(c2ccc(-c3ccc(C45CCCN(CCC4)C5)cn3)cn2)CC1` stands 202 to 204 °C.
For `c1ccc2cc(-c3ccc(C45CCN(CC4)C5)cn3)ccc2c1` the value was 154 to 156 °C.
In turn, `c1ccc2c(-c3ccc(C45CCN(CC4)C5)cn3)cncc2c1` gave a melting point of 143 to 145 °C.
Under `COc1cc(F)cc(-c2ccc(C34CCN(CC3)C4)cn2)c1` stands 95 to 97 °C; under `FC(F)(F)Oc1cccc(-c2ccc(C34CCCN(CCC3)C4)cn2)c1` (as salt: HBr), 267 to 269 °C.
On to `c1ncc(-c2ccc(C34CCN(CC3)C4)cn2)cn1`, for which the melting point was in the range of 244 to 246 °C.
Under `c1ccc(-c2ccc(-c3ccc(C45CCCN(CCC4)C5)cn3)cc2)cc1` stands 146 to 148 °C.
Molecule `c1cc(-c2ccc(C34CCN(CC3)C4)cn2)c[nH]1` (as salt: HCl) gave a melting point of 324 to 326 °C.
Consider `c1cc(-c2ccc(C34CCCN(CCC3)C4)cn2)c[nH]1`, for which the melting point fell in the range of 152 to 154 °C.
`c1ccc2ncc(-c3ccc(C45CCCN(CCC4)C5)cn3)cc2c1` registered a melting point of 160 to 162 °C.
Under `Fc1cc(-c2ccc(C34CCN(CC3)C4)cn2)ccc1-c1ccccc1` stands 153 to 155 °C; under `c1ccc2oc(-c3ccc(C45CCN(CC4)C5)cn3)cc2c1`, 164 to 165 °C; under `c1ccc2c(c1)sc1ccc(-c3ccc(C45CCCN(CCC4)C5)cn3)cc12` (as salt: HCl), 242 to 244 °C.
Under `c1cc(-c2ccc(C34CCN(CC3)C4)cn2)co1` stands 279 to 281 °C; under `COc1ccccc1-c1ccc(C23CCCN(CCC2)C3)cn1` (as salt: HBr), 239 to 241 °C; under `c1ccc2cc(-c3ccc(C45CCCN(CCC4)C5)cn3)ccc2c1`, 163 to 165 °C.
For `COc1ccc(-c2ccc(C34CCN(CC3)C4)cn2)cc1F` the value was 125 to 126 °C; for `COc1ccncc1-c1ccc(C23CCN(CC2)C3)cn1`, 97 to 99 °C; for `Fc1ccc(-c2ccc(C34CCCN(CCC3)C4)cn2)cc1`, 107 to 109 °C.
`c1ccc(-c2ccc(-c3ccc(C45CCN(CC4)C5)cn3)cc2)cc1` came in with a melting point of 191 to 192 °C.
For `c1cnc2ccc(-c3ccc(C45CCCN(CCC4)C5)cn3)cc2c1` the value was 151 to 153 °C; for `c1cc(-c2ccc(C34CCCN(CCC3)C4)cn2)c2ccncc2c1` (as salt: HBr), 246 to 248 °C.
Under `COc1ccc(-c2ccc(C34CCN(CC3)C4)cn2)cc1OC` (as salt: HCl) stands 247 to 249 °C; under `Fc1cc(-c2ccc(C34CCCN(CCC3)C4)cn2)ccc1-c1ccccc1`, 144 °C; under `COc1ccc(-c2ccc(C34CCCN(CCC3)C4)cn2)c(OC)c1` (as salt: HBr), 198 to 200 °C.
Under `c1cc(-c2ccc(C34CCCN(CCC3)C4)cn2)c2cccnc2c1` stands 147 to 149 °C; under `c1cc2nonc2cc1-c1ccc(C23CCCN(CCC2)C3)cn1`, 151 to 153 °C; under `c1ccc(Oc2ccc(-c3ccc(C45CCN(CC4)C5)cn3)cc2)cc1`, 141 to 143 °C.
On to `c1nc(N2CCOCC2)ncc1-c1ccc(C23CCN(CC2)C3)cn1`, for which the melting point fell in the range of 226 to 227 °C.
Molecule `COc1cc(F)ccc1-c1ccc(C23CCN(CC2)C3)cn1` had a melting point of 169 to 170 °C.
Under `c1ccc2ncc(-c3ccc(C45CCN(CC4)C5)cn3)cc2c1` stands 267 to 268 °C; under `c1cc(-c2ccc(C34CCN(CC3)C4)cn2)c2cccnc2c1`, 129 to 131 °C; under `c1ccc2c(c1)oc1c(-c3ccc(C45CCN(CC4)C5)cn3)cccc12`, 158 to 160 °C.
In turn, `c1cncc(-c2ccc(C34CCN(CC3)C4)cn2)c1` came in with a melting point of 228 to 229 °C.
Under `Fc1ccccc1-c1ccc(C23CCCN(CCC2)C3)cn1` stands 117 to 119 °C; under `c1cc2nonc2cc1-c1ccc(C23CCN(CC2)C3)cn1`, 139 to 140 °C.
Molecule `COc1ccc(-c2ccc(C34CCCN(CCC3)C4)cn2)cc1` gave a melting point of 138 to 139 °C.
For `COc1ncc(-c2ccc(C34CCCN(CCC3)C4)cn2)c(OC)n1` the value was 81 to 83 °C; for `c1cnc2c(-c3ccc(C45CCN(CC4)C5)cn3)cccc2c1`, 176 to 178 °C; for `FC(F)(F)c1ccccc1-c1ccc(C23CCN(CC2)C3)cn1` (as salt: HBr), 310 to 312 °C.
For `Cc1ccc(-c2ccc(C34CCN(CC3)C4)cn2)cc1` the value was 134 to 136 °C; for `Cn1ccc2cc(-c3ccc(C45CCCN(CCC4)C5)cn3)ccc21`, 166 to 168 °C.
For `CC(=O)c1cccc(-c2ccc(C34CCN(CC3)C4)cn2)c1` the value was 95 to 98 °C; for `FC(F)(F)Oc1ccc(-c2ccc(C34CCCN(CCC3)C4)cn2)cc1`, 120 to 122 °C.
For the molecule `c1ccc(Oc2ccc(-c3ccc(C45CCCN(CCC4)C5)cn3)cc2)cc1`, the melting point is 129 to 131 °C.
Under `Fc1ccc(-c2ccc(C34CCN(CC3)C4)cn2)cn1` stands 108 to 109 °C; under `c1cncc(-c2ccc(C34CCCN(CCC3)C4)cn2)c1`, 118 to 120 °C.
Under `COc1cccc(-c2ccc(C34CCN(CC3)C4)cn2)c1F` stands 144 to 146 °C.
For `c1ccc(-c2ccc(C34CCN(CC3)C4)cn2)cc1` the value was 126 to 128 °C; for `COc1ccc(-c2ccc(C34CCCN(CCC3)C4)cn2)cc1F`, 138 to 140 °C; for `COc1ccccc1-c1ccc(C23CCN(CC2)C3)cn1` (as salt: HBr), 114 to 116 °C.
Turning to `COc1cccc(-c2ccc(C34CCN(CC3)C4)cn2)c1`, the melting point lay in the range of 87 to 89 °C.
Under `c1ccc2sc(-c3ccc(C45CCCN(CCC4)C5)cn3)cc2c1` stands 176 to 178 °C.
For `c1ccc2c(c1)oc1c(-c3ccc(C45CCCN(CCC4)C5)cn3)cccc12` the value was 142 to 144 °C; for `Fc1ccc(-c2ccc(C34CCCN(CCC3)C4)cn2)cn1`, 121 to 122 °C; for `c1cc(-c2ccc(C34CCCN(CCC3)C4)cn2)cc(-n2cccn2)c1`, 135 to 137 °C.
For `Cn1cccc1-c1ccc(C23CCN(CC2)C3)cn1` (as salt: HCl), the melting point fell in the range of 248 to 250 °C.
Consider `c1ncc(-c2ccc(C34CCCN(CCC3)C4)cn2)cn1`, for which the melting point lay within 139 to 141 °C.
`c1cc(-c2ccc(C34CCCN(CCC3)C4)cn2)co1` yielded a melting point of 335 to 337 °C.
For `Cn1cccc1-c1ccc(C23CCCN(CCC2)C3)cn1` the value was 105 to 107 °C; for `c1cc(-c2ccc(C34CCN(CC3)C4)cn2)c2ccncc2c1`, 176 to 178 °C; for `COc1ncc(-c2ccc(C34CCN(CC3)C4)cn2)c(OC)n1`, 104 to 106 °C.
Under `c1ccc2c(-c3ccc(C45CCCN(CCC4)C5)cn3)cncc2c1` (as salt: HBr) stands 332 to 334 °C; under `FC(F)(F)c1ccc(-c2ccc(C34CCCN(CCC3)C4)cn2)cc1`, 135 to 137 °C; under `c1ccc(-c2ccc(C34CCCN(CCC3)C4)cn2)cc1`, 103 to 105 °C.
In the case of `c1cc(N2CCCC2)ncc1-c1ccc(C23CCCN(CCC2)C3)cn1`, the melting point fell in the range of 301 to 303 °C.
For `COc1cc(F)ccc1-c1ccc(C23CCCN(CCC2)C3)cn1` the value was 148 to 150 °C; for `Fc1ccccc1-c1ccc(C23CCN(CC2)C3)cn1`, 110 to 112 °C.
Turning to `COc1ccc(OC)c(-c2ccc(C34CCCN(CCC3)C4)cn2)c1`, the melting point was in the range of 101 to 103 °C.
For `COc1ccc(OC)c(-c2ccc(C34CCN(CC3)C4)cn2)c1` (as salt: HBr) the value was 152 to 154 °C; for `c1cc2c(cc1-c1ccc(C34CCCN(CCC3)C4)cn1)OCO2`, 124 to 126 °C; for `c1cnc2ccc(-c3ccc(C45CCN(CC4)C5)cn3)cc2c1` (as salt: HCl) [Compound 12, 6-[5-(1-azabicyclo[2.2.1]hept-4-yl)pyridin-2-yl]quinoline], 327 to 328 °C.
